The text below walks through data of PMC7046148 (Scientific Reports, 2020).

Data set [1] deals with Gibco hiPSCs. Kind of data set: qRT-PCR characterization of LPM differentiation, Gibco hiPSCs in 2D. To be noted: 20 µM thalidomide, 2 d in APEL2+GSKi; for effect on marker gene expression during LPM differentiation (words): 2D. The data set is classed as cell-based, human. The method, then: The TaqMan hPSC Scorecard Assay (Thermo Fisher) was used to assess the pluripotency of cultured Gibco hiPSCs and the XCL-1 hiPSC clones as described. The assay outputs scores for self-renewal, ectoderm, endoderm, and mesoderm genes.
Gibco hiPSCs were seeded in small clumps at ~10% confluence on Matrigel-coated dishes and were cultured for 1 d in mTeSR-1. On the following day after seeding, the medium was switched to APEL2 basal medium (Stem Cell Technologies) supplemented with 5 µM CHIR99021 (Stem Cell Technologies) (hereafter referred to as APEL2 + GSKi). hiPSCs were cultured for the described duration in APEL2 + GSKi and were characterized by qRT-PCR and immunofluorescence. Briefly, RNA was extracted using buffer RLT supplemented with 1% β-mercaptoethanol and purified from hiPSCs using RNeasy kit (Qiagen) with optional DNase step. Reverse transcription was carried out using the high capacity cDNA reverse transcription kit (ThermoFisher). cDNA was characterized using Qubit HS dsDNA kit (Invitrogen), and qRT-PCR was carried out using TaqMan primer/probes (Thermo Fisher) and fast advanced master mix (Thermo Fisher) per manufacturer’s instructions on either the Viia7 or QuantStudio 5 (Thermo Fisher). Assay results were normalized to ACTB housekeeping control and the undifferentiated control (day 0) via the 2^−ΔΔCT method. The capacity of Gibco hiPSCs and XCL-1 hiPSCs to undergo LPM differentiation was also assessed using qRT-PCR for markers of pluripotency (NANOG, POU5F1), primitive streak (T, SOX17), LPM (FOXF1, GATA4), and limb mesenchyme (PITX1, TBX5).
Data represent the mean ± log2 fold change, normalized to the ACTB control and the DMSO control via the 2^−ΔΔCT method, relative to DMSO control from 4 independent experiments. Asterisks denote statistical significance via 2-tailed Student’s t-test relative to a nominal mean log2 fold change of ‘0’ (α = 0.05). PS = primitive streak; LPM = lateral plate mesoderm.
Legend for Supplementary Tables 1-3
Supplementary tables 1-3 contain qRT-PCR data obtained using the Taqman hPSC Scorecard Assay (Thermo Fisher).Lysates of Gibco and XCL-1 hiPSCs were purified to RNA using RNeasy procedure (Qiagen). Reverse transcription was performed using the cDNA high capacity reverse transcription kit(Invitrogen). dsDNA content was calculated using Qubit dsDNA HS kit(Invitrogen). cDNA was loaded into hPSC pluripotency panel pre-loaded 384 well plates, and plates were run on Viia7 using standard curve method. The hPSC scorecard analysis software (Thermo Fisher) was used to calculate the relative gene expression scores forself-renewal genes, ectoderm genes, endoderm genes, and mesoderm genes. Scores are provided from pooled lysates from replicate wells ofa single experiment. Cells were cultured as described herein. […]

Data set [2] relates to hPSC. Also on record: method as in PMID 24154490. Conditions: cited from earlier work.
Data set [3] deals with human pluripotent stem cells (hPSCs). Conditions: cited from earlier work.
Data set [4] addresses T1, human SALL4 (Homo sapiens, UniProt Q9UJQ4).
T1 construct: expressed in transfected cells; host or cells: Lenti-x 293 CRBN CRISPR KO (CRBN-/-) cells stably expressing human SALL4, transiently transfected with FLAG-CRBN variants
The data set can be described thus: Immunoblot of SALL4 degradation in Lenti-x 293 CRBN-/- cells expressing human CRBN variants. In kind it is cell-based. Conditions: 20 µM thalidomide, 10 µM lenalidomide, 1 µM pomalidomide, 24 hours; relative to wild-type human CRBN. Background: A western blot detects proteins with antibodies after separation by electrophoresis.
From the text: SALL4 were transiently transfected with vectors expressing GFP or human CRBN variants and treated with
CRBN-/- cells transfected with empty vector were used as a negative control. The cells were then lysed and
characterized by immunoblotting analysis for SALL4, ZFP91, GFP, CRBN, and β-actin.
CRBN CRISPR KO (CRBN -/-) cells were maintained in Dulbecco’s Modified Eagle’s medium (DMEM;
Invitrogen) supplemented with 10% fetal bovine serum (FBS; Invitrogen). All cell lines were confirmed
mycoplasma-negative using the MycoAlert Mycoplasma Detection Kit (Lonza).
CRBN-/- cells stably expressing human SALL4 was transiently transfected with 4 µg of pcDNA3-GFP, pcDNA3-
FLAG-CRBN WT (isoform 1),pcDNA3-FLAG-CRBN E377V (isoform 1) or pcDNA3-FLAG-CRBN V388I (isoform
Cells were then harvested and lysed, and
whole cell extract was subjected to immunoblotting analysis. Cells were washed with ice-cold 1X PBS and
lysed in 50mM Tris-HCl [pH 7.6], 150 mM NaCl, 1% Triton X-100, and 1x Complete ULTRA protease inhibitor
cocktail and PhosSTOP phosphatase inhibitor cocktail. Whole cell extracts were collected after
centrifugation at top speed for 10 minutes, resolved by sodium dodecyl sulfate polyacrylamide gel
electrophoresis, transferred onto a nitrocellulose membrane using the Turboblot system (Bio-Rad), and
probed with the indicated primary antibodies. Bound antibodies were detected with IRDye®-680 or -800 […]

For data set [5], the target named is T2, SALL4 (Homo sapiens, UniProt Q96SW2+Q9UJQ4).
T2 construct: Unmodified Gibco hiPSCs were either differentiated in APEL2 + GSKi or maintained in mTeSR1, and SALL4 nuclear protein expression was monitored; endogenous in cells; host or cells: Gibco hiPSCs; XCL-1 SALL4 mock hiPSC clone
The data set can be described thus: SALL4 MFI by high content imaging, XCL-1 SALL4 mock hiPSCs. In kind it is cell-based. To be noted: SALL4 mock control hiPSCs, 8 h of treatment. The source says:
High content imaging analysis of SALL4 immunofluorescence with DAPI counterstaining in hiPSCs. […] Data represent the mean +/− SEM from 2 independent experiments.

For data set [6], the system named is mouse embryonic stem cells. To be noted: cited from earlier work.
Data set [7] deals with XCL-1 hiPSC SALL4 Mock. Kind of data set: cells. In kind it is cell-based. To be noted: Homo sapiens, 72 h; XCL-1 SALL4 Mock; 3 d differentiation; read-out: IC50 (±SEM) in SOX17 differentiation assay. The method, then:
(§1) The assay was carried out as previously described with continuous dosing of chemical for 3 total days of differentiation. SOX17 staining and DAPI counter-staining were carried out as described, and assays were imaged via high content imaging. […]
(§2) Supplementary Figure 7. Dose-response characterization of the influence […]
(§3) of XCL-1 clones. High content imaging analysis of XCL-1 hiPSC clones that were differentiated for 3 days in the presence of compound and subsequently stained for SOX17 and counter-stained with DAPI. Untreated DMSO control is omitted. Data represent the mean +/- SEM %SOX17 cells
(§4) (relative to control) from 4 independent experiments. Nonlinear regression […]
(§5) variable slope plotting tool in GraphPad Prism. A-C: Dose-response […]
(§6) in cereblon mock (hollow circles) or CRBN KO/KI (red filled circles) clones. D- […]

Data set [8] has as its system XCL-1 hiPSC CRBN Mock. Kind of data set: cells. In kind it is cell-based. Conditions: Homo sapiens, 72 h; XCL-1 CRBN Mock; 3 d differentiation; read-out: IC50 (±SEM) in SOX17 differentiation assay. As to the method: as §1, §2, §3, §4, §5, §6
Data set [9] has as its system XCL-1 hiPSC CRBN KO/KI. Kind of data set: cells. In kind it is cell-based. Conditions: Homo sapiens, 72 h; XCL-1 CRBN KO/KI; 3 d differentiation; read-out: IC50 (±SEM) in SOX17 differentiation assay. As to the method:
as §1, §2, §3, §4, §5, §6

The subject of data set [10] is XCL-1 hiPSC SALL4^G416A. Kind of data set: cells. The data set is classed as cell-based. Conditions: Homo sapiens, 72 h; XCL-1 SALL4^G416A; 3 d differentiation; read-out: IC50 (±SEM) in SOX17 differentiation assay. The method, then: as §1, §2, §3, §4, §5, §6

T2 sequence (Q9UJQ4 whole entry): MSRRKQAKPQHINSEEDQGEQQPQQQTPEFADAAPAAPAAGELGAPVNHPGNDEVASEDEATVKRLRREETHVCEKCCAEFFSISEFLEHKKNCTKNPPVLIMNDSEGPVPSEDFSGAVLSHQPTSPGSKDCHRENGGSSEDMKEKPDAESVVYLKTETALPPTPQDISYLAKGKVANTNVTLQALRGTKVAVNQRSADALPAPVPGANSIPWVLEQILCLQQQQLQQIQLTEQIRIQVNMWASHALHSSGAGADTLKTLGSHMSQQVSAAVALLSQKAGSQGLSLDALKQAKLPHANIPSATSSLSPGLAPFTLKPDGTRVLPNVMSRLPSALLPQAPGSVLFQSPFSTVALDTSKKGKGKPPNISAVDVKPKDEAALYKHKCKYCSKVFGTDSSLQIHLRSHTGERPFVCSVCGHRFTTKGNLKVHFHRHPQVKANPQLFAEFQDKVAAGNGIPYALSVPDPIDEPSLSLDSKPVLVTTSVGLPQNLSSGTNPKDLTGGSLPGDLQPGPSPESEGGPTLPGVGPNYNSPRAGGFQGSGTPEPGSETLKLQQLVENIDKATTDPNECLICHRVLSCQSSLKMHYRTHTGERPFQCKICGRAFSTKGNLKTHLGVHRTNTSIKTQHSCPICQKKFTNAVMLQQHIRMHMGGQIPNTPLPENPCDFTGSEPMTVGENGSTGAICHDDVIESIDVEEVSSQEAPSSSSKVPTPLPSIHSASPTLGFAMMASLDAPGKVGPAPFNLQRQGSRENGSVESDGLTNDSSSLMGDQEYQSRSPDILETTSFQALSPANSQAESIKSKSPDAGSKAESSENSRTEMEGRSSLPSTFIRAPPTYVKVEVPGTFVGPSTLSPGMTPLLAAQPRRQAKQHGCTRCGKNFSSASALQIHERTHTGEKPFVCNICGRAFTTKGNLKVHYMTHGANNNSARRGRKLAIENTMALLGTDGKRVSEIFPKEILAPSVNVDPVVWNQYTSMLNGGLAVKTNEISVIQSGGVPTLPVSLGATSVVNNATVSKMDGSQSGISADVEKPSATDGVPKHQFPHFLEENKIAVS
T2 sequence (Q96SW2 whole entry): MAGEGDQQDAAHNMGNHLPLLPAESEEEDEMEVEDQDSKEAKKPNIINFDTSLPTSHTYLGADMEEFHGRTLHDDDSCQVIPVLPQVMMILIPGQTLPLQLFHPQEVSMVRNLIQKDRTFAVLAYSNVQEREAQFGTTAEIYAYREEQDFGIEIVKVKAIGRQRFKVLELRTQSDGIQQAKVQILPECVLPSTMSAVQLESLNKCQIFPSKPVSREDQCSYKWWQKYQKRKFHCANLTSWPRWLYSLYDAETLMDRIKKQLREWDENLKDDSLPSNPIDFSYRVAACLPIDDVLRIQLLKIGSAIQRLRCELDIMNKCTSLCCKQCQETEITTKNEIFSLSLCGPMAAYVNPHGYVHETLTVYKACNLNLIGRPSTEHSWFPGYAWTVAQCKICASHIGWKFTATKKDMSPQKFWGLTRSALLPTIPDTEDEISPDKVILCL
T2 sequence (Q16531 whole entry partner): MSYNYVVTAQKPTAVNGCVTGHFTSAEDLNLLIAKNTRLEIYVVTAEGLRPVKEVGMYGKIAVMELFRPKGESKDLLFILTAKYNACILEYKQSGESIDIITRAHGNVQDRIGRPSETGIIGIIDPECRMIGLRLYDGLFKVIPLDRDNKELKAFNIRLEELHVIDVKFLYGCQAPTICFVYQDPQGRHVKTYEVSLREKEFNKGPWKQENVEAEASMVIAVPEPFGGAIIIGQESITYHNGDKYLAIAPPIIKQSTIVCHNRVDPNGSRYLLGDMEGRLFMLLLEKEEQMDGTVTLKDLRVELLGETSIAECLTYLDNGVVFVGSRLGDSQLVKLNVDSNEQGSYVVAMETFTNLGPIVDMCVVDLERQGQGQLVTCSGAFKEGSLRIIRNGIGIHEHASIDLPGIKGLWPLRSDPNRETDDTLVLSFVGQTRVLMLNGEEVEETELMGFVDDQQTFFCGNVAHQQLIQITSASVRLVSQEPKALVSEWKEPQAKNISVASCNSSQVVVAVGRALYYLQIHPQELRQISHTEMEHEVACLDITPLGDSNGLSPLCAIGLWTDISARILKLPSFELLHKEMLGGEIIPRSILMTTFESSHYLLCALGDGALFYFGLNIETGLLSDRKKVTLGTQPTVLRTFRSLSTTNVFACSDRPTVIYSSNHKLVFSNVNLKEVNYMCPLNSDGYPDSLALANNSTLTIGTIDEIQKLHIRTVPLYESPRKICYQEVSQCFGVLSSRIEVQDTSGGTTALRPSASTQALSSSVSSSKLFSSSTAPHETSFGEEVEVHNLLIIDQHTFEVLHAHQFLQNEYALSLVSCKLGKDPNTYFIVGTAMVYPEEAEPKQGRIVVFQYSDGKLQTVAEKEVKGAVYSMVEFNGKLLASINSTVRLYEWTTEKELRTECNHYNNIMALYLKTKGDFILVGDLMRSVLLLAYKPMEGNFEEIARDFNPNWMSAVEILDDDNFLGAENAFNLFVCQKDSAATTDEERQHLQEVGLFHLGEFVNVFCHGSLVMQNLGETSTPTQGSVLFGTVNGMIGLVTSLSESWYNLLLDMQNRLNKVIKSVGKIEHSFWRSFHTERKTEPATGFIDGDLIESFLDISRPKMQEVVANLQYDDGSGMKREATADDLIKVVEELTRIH
T1 sequence (Q96SW2 whole entry partner): as the sequence (Q96SW2 whole entry) above
T1 sequence (Q16531 whole entry partner): as the sequence (Q16531 whole entry partner) above
T1 sequence (Q9UJQ4 whole entry): as the sequence (Q9UJQ4 whole entry) above

`O=C1CCC(N2C(=O)c3ccccc3C2=O)C(=O)N1` (stereo not shown) [Thalidomide, thalidomide]: the “effect on marker gene expression during LPM differentiation (words)” value in [1] is “did not affect expression of the other measured markers”; in [1] (listed as thalidomide) it was “significantly reduced the expression of both FOXF1 and SOX17”. Besides, the “reduction of FOXF1 expression” value in [1] (hPSC Scorecard panel) was ~ 60%. Further, the “reduction of SOX17 expression” value in data set [1] (hPSC Scorecard panel) is given as more than 95%. In addition, in [2], the “non-cytotoxic concentrations at which the definitive endoderm assay was sensitive” value is “below 1 µM”. Further, the “concentrations with cytotoxicity or functional effects on hPSCs and hPSC-derived mesoderm” value in [3] was “above 100 µM”. In addition, the “SALL4 degradation in human cells expressing CRBN with the V388I mutation” value in data set [4] was “failed to induce SALL4 degradation”. Also, the “effect on SALL4 MFI” value in [5] is on record as “potently reduced SALL4 MFI”. In data set [6], the “concentration for nonspecific toxicity in the mEST” value is given as “above 400 µM”. Also, the IC50 is 1.8 ± 2.6 µM in data set [7], 1.9 ± 2.3 µM in [8], more than 50 µM in data set [9] and more than 50 µM in data set [10].

What is called IC50 is the concentration at which inhibition is half-maximal.
